Test system: P. falciparum 3D7 parasites
Experiment: Metabolomic profiling of compound-treated parasites (LC/MS);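 as to Metabolite data: 3-Phosphoglycerate: Log2 fold change in abundance versus untreated parasite controls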;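 as to Metabolite data: Myo-Inositol: Log2 fold change in abundance versus untreated parasite controls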;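 as to Metabolite data: N-Carbamoyl-L-Aspartate: Log2 fold change in abundance versus untreated parasite controls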;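 as to Metabolite data: Nicotinate: Log2 fold change in abundance versus untreated parasite controls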
Format: cell-based
Design: Metabolite data: dTMP / Metabolite data: GMP / Metabolite data: S-Adenosyl-L-Homocysteine / Metabolite data: 1_3-Bisphosphoglyceric acid: scale not given here
In short: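 Magnetically purified trophozoites (1×10^8 parasites/mL) recovered 1 h in RPMI 1640, incubated a further 2.5 h, quenched in 90% methanol with labeled aspartate. Extracts analysed by reverse-phase C18 LC with negative-mode Orbitrap MS; peak areas normalized to internal standards, blank-subtracted and averaged by condition.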

Compound: C[C@H]1Cc2c([nH]c3cc(Cl)c(F)cc23)[C@@]2(N1)C(=O)Nc1ccc(Cl)cc12 [NITD609]
- Metabolite data: 1_3-Bisphosphoglyceric acid: 0
- Metabolite data: 2_3-Diphosphoglyceric acid: -2.22
- Metabolite data: 3-Phosphoglycerate: 0.01
- Metabolite data: 4-Aminobutyrate: -0.54
- Metabolite data: 4-Phosphopantothenate: -0.15
- Metabolite data: 4-phosphopantetheine: 0
- Metabolite data: 5-aminopentanoic acid: 0
- Metabolite data: 5-phosphoribosyl-1-pyrophosphate: 0
- Metabolite data: 6-Phospho-D-Gluconate: -0.28
- Metabolite data: ADP-D-Glucose: 0.02
- Metabolite data: Acetyl-CoA: -0.54
- Metabolite data: Acetyllysine: -1.93
- Metabolite data: Aconitate: 0.62
- Metabolite data: CDP: -0.29
- Metabolite data: CDP-Ethanolamine: -0.28
- Metabolite data: CDP-choline: 0
- Metabolite data: CMP: 1.24
- Metabolite data: CTP: -1.27
- Metabolite data: Citrate/Isocitrate: 0.19
- Metabolite data: Cyclic-AMP: -1.16
- Metabolite data: Dihydroorotate: -2.01
- Metabolite data: FAD: -1.31
- Metabolite data: FMN: -1
- Metabolite data: Fructose-1,6-Bisphosphate: -1.13
- Metabolite data: Fumarate: -0.06
- Metabolite data: GDP: -2.58
- Metabolite data: GMP: -2.42
- Metabolite data: GTP: -1.11
- Metabolite data: Glucose-1/6-Phosphate: -0.9
- Metabolite data: Glutathione Disulfide: -0.38
- Metabolite data: Hexose: 0
- Metabolite data: Hydroxyisocaproic acid: 0
- Metabolite data: Indole: 0.17
- Metabolite data: Ketoleucine: 0
- Metabolite data: L-arginino-succinate: 0
- Metabolite data: Lactate: -1.31
- Metabolite data: Malate: -0.06
- Metabolite data: Myo-Inositol: -3.27
- Metabolite data: N-Acetyl-Glutamate: -0.27
- Metabolite data: N-Acetyl-L-Alanine: -1.42
- Metabolite data: N-Acetyl-L-Ornithine: -1.27
- Metabolite data: N-Carbamoyl-L-Aspartate: -4.57
- Metabolite data: NAD+: -0.4
- Metabolite data: NADH: 0.03
- Metabolite data: NADP+: -0.12
- Metabolite data: NADPH: 0.35
- Metabolite data: Nicotinate: 0.78
- Metabolite data: Octulose 8/1-Phosphate: -1.92
- Metabolite data: Orotate: 0.91
- Metabolite data: PD: 0
- Metabolite data: PE: 0
- Metabolite data: PEEK: 0
- Metabolite data: Phenol Red: 0
- Metabolite data: Pyroglutamic acid: -0.06
- Metabolite data: S-Adenosyl-L-Homocysteine: -1.64
- Metabolite data: S-methyl-5'-thioadenosine: -0.53
- Metabolite data: SD: 0
- Metabolite data: Sedoheptulose Bisphosphate: -1.34
- Metabolite data: UDP: -0.96
- Metabolite data: UDP-D-Glucose: -0.2
- Metabolite data: UDP-D-Glucuronate: -0.36
- Metabolite data: UDP-N-Acetyl-Glucosamine: 0.03
- Metabolite data: UMP: -0.38
- Metabolite data: UTP: -2.05
- Metabolite data: a-ketoglutarate: 0.5
- Metabolite data: acetyl-aspartate: 0
- Metabolite data: arginine: 0
- Metabolite data: asparagine: 0
- Metabolite data: aspartate: 0
- Metabolite data: biotin: 0
- Metabolite data: chlorpropamide: 0
- Metabolite data: coenzyme A: 0
- Metabolite data: dAMP: 2.56
- Metabolite data: dATP: -0.71
- Metabolite data: dCDP: 1.68
- Metabolite data: dCMP: 1.5
- Metabolite data: dCTP: 0.45
- Metabolite data: dGDP/ADP: 0
- Metabolite data: dGMP/AMP: -1.14
- Metabolite data: dGTP/ATP: 0
- Metabolite data: dTDP: 2.45
- Metabolite data: dTMP: 3.96
- Metabolite data: dTTP: 1.4
- Metabolite data: folate: 0
- Metabolite data: glucono-lactone: 0
- Metabolite data: glutamate: 0
- Metabolite data: glutamine: 0
- Metabolite data: glutathione: 0
- Metabolite data: histidine: 0
- Metabolite data: hydroxyproline/Aminolevulinate: 0
- Metabolite data: isoleucine: 0
- Metabolite data: leucine: 0
- Metabolite data: maleic acid: 0
- Metabolite data: methionine: 0
- Metabolite data: nicotinamide mononucleotide: 0
- Metabolite data: orotidine-5'-phosphate: 0

— paper PMC8878317, “Chemogenomics identifies acetyl-coenzyme A synthetase as a target for malaria treatment and prevention” (Cell Chemical Biology, 2022)
